“Also recorded” adds a separate entry of the source.

Format in all cases: in vivo, C57BL/6 (B6) mice
Experiment [1] deals with P. aeruginosa KEI 1025. Description: Quantification of viable bacteria (plate count), KEI 1025 infection. To be noted: vs PBS; for bacterial load (plate count): post treatment: subconj. 6 hours p.i. + IP 1 and 3 days p.i.; for bacterial load in the corneas (plate count): pretreatment subconj. + IP. The procedure:
(§1) The left eyes of B6 mice (n=5/group/time) were injected with 5 μl of 2 μg/μl glycyrrhizin (GLY) (Sigma-Aldrich, St. Louis, Mo.) or PBS (control) subconjunctivally, one day before infection. Similar treatment was done using carbenoxolone (CBX) (Sigma-Aldrich, St. Louis, Mo.). All mice were injected intraperitoneally (IP) at 1 and 3 days p.i. with 100 μl of GLY (2 μg/μl) or CBX (1 μg/μl). PBS served as control for all these experiments. In a separate similar experiment mice were treated one day before infection with GLY subconjunctivally and injected intraperitoneally (i.p.) with GLY plus recombinant (r) HMGB1 (1 μg/100 μl) or GLY plus PBS. IP injections were similarly given at 1 and 3 days p.i. In an additional experiment, KEI 1025 infected B6 mice were treated with 5 μl of 2 μg/μl GLY subconjunctivally at 6 hours p.i. and injected intraperitoneally at 1 and 3 days p.i. with 100 μl of GLY (2 μg/μl).
Mice were sacrificed at 3 and 5 days p.i. and KEI 1025 or ATCC strain 19660 infected corneas from GLY, CBX or PBS (or GLY+/−rHMGB1) treated B6 mice were harvested (n=5/group/time). Each cornea was homogenized in 1 ml of sterile saline (0.85% NaCl, pH 7.4) containing 0.25% BSA. A 100 μl of the corneal homogenate was serially diluted (1:10) in sterile saline containing 0.25% BSA. Selected dilutions were plated in triplicate on selective culture medium (Difco™ Pseudomonas Isolation Agar, BD Biosciences, Inc., Franklin Lakes, N.J.). Plates were incubated overnight at 37° C. and viable bacteria manually counted. Results are reported as log10 CFU/cornea±SEM.

The subject of experiment [2] is P. aeruginosa ATCC strain 19660 infected cornea. Description: Ocular response to bacterial infection (clinical score, slit lamp), strain 19660 keratitis. The note with it: pretreatment subconj. + IP, vs PBS.
Text: (§2) P. aeruginosa strains, KEI 1025, a non-cytotoxic clinical isolate strain expressing exoT and exoS, and not expressing exoU, described in Estrellas P S, Jr., et al., Curr Eye Res. 2000; 20:157-165 (obtained from Kresge Eye Institute, Detroit, Mich.), and a cytotoxic strain, 19660, expressing exoU, described in Finck-Barbancon V, et al., Mol Microbiol. 1997; 25:547-557; and Fleiszig S M, et al., Infect Immun. 1997; 65:579-586 (obtained from American Type Culture Collection, ATCC, Manassas, Va.), were grown in peptone tryptic soy broth (PTSB) medium in a rotary shaker water bath at 37° C. and 150 rpm for 18 h to an optical density (measured at 540 nm) between 1.3-1.8. Bacterial cultures were pelleted by centrifugation at 5,500 g for 10 min. Pellets were washed once with sterile saline, re-centrifuged, re-suspended and diluted in sterile saline. Anesthetized (using anhydrous ethyl ether) mice were placed beneath a stereoscopic microscope at 40× magnification. The left cornea was scarified with three 1-mm incisions using a sterile 25^5/8 gauge needle. The wounded corneal surface was topically treated with 5 μl containing 1×10^7 CFU/μl (KEI 1025) or 1×10^6 CFU/μl (ATCC strain 19660) of the P. aeruginosa suspension.
(§3) An established corneal disease grading scale, described in detail in Hazlett L D, et al., Invest Ophthalmol Vis Sci. 1987; 28:1978-1985, was used to assign a clinical score value to each infected eye at 1, 3 and 5 days post infection (p.i.). Clinical scores were designated as: 0=clear or slight opacity, partially or fully covering the pupil; +1=slight opacity, fully covering the anterior segment; +2=dense opacity, partially or fully covering the pupil; +3=dense opacity, covering the entire anterior segment; and +4=corneal perforation or phthisis. Clinical scores were used to statistically compare disease severity and were accompanied by photographs using a slit lamp (5 days p.i.) to confirm and illustrate the response.
as §1, with “In an additional experiment, KEI 1025 infected B6 mice were treated with 5 μl of 2 μg/μl GLY subconjunctivally at 6 hours p.i. and injected intraperitoneally at 1 and 3 days p.i. with 100 μl of GLY (2 μg/μl).” left out

In experiment [3] the test system is protein levels in P. aeruginosa ATCC strain 19660 infected cornea. Description: ELISA of corneal proteins, strain 19660 infection. The note with it: vs PBS. The procedure: as §1
KEI 1025 or ATCC strain 19660 infected GLY or PBS treated, B6 mice (n=5/group/time) were sacrificed at 3 and 5 days p.i. and normal and infected corneas harvested. To quantify IL-1β and CXCL2 proteins, individual corneas were homogenized in 1 ml of 50 mM potassium phosphate buffer (pH 6.0) containing 0.5% HTAB (hexadecyltrimethylammonium bromide, Sigma). To quantify HMGB1, cathelicidin-related antimicrobial peptide (CRAMP), mouse beta defensin 2 (mBD2) and mouse beta defensin 3 (mBD3) protein levels, individual corneas were homogenized in 500 μl of PBS containing 0.1% Tween 20 (Sigma) and protease inhibitors (Roche, Indianapolis, Ind.). Corneal homogenates were centrifuged at 12,000 g for 10 min. A 50 μl aliquot of each supernatant was assayed in duplicate to quantify IL-1β, CXCL2, HMGB1 and mBD2 proteins. A 100 μl aliquot of CRAMP and mBD3 supernatant was assayed in duplicate to quantify corresponding protein levels. Undiluted supernatant aliquots were used to quantify all proteins except CXCL2 (1:2 dilution) and HMGB1 (1:5 dilution). An HMGB1 ELISA kit was purchased from Chondrex Inc., Redmond, Wash. CRAMP, mBD2 and mBD3 ELISA kits were purchased from MyBioSource, Inc., San Diego, Calif. All other ELISA kits were purchased from R&D Systems, Minneapolis, Minn. Assays were run following the manufacturer's instructions. Sensitivities of the assays were: 2.31 […] (mBD3).
On the technique in general: ELISA stands for enzyme-linked immunosorbent assay.

The subject of experiment [4] is P. aeruginosa KEI 1025 infected cornea. Description: Ocular response to bacterial infection (clinical score, slit lamp), KEI 1025 keratitis. To be noted: for opacity, slit lamp photographs / clinical scores: vs PBS.
Text: as §2, §3, §1

The subject of experiment [5] is P. aeruginosa ATCC strain 19660. Description: Quantification of viable bacteria (plate count), strain 19660 infection. The note with it: vs PBS. Here is the method:
as §1
Mice were sacrificed at 3 and 5 days p.i. and KEI 1025 or ATCC strain 19660 infected corneas from GLY, CBX or PBS (or GLY+/−rHMGB1) treated B6 mice were harvested (n=5/group/time). Each cornea was homogenized in 1 ml of sterile saline (0.85% NaCl, pH 7.4) containing 0.25% BSA. A 100 μl of the corneal homogenate was serially diluted (1:10) in sterile saline containing 0.25% BSA. […] Plates were incubated overnight at 37° C. and viable bacteria manually counted. […]

Where [6] appears, read: subconj. 1 day before infection + IP 1 and 3 days p.i., 5 days p.i.

For `CC1(C)[C@@H](O[C@H]2O[C@H](C(=O)O)[C@@H](O)[C@H](O)[C@H]2O[C@@H]2O[C@H](C(=O)O)[C@@H](O)[C@H](O)[C@H]2O)CC[C@]2(C)[C@H]3C(=O)C=C4[C@@H]5C[C@@](C)(C(=O)O)CC[C@]5(C)CC[C@@]4(C)[C@]3(C)CC[C@@H]12` [GLY, glycyrrhizin], the “bacterial load (plate count)” value in experiment [1] (3 days p.i.) was “reduced significantly”; in experiment [1] (5 days p.i.), “reduced significantly”; in experiment [5] (3 days p.i.), “significantly reduced”; in experiment [5] (5 days p.i.), “significantly reduced”. Further, the “bacterial load in the corneas (plate count)” value in experiment [1] (3 days p.i.) and in experiment [1] (5 days p.i.) was “reduced” throughout. The clinical scores entry in experiment [2] (1 day p.i.) is “not at 1 day p.i”; in experiment [2] (3 days p.i.), “reduced clinical scores that were significant”; in experiment [2] (5 days p.i.) it was “reduced clinical scores that were significant”; in experiment [4] (post treatment: subconj. 6 hours p.i. + IP 1 and 3 days p.i., 1 day p.i.), “seen only at 3 and 5 days p.i”; in experiment [4] (post treatment: subconj. 6 hours p.i. + IP 1 and 3 days p.i., 3 days p.i.) it was “Reduced clinical scores”; in experiment [4] (post treatment: subconj. 6 hours p.i. + IP 1 and 3 days p.i., 5 days p.i.) it was “Reduced clinical scores”. In addition, the clinical scores entry in experiment [4] (subconj. 1 day before infection + IP 1 and 3 days p.i., 1 day p.i.) was “significantly less corneal disease with lower clinical scores; also recorded: reduced significantly”; in experiment [4] (subconj. 1 day before infection + IP 1 and 3 days p.i., 3 days p.i.), “significantly less corneal disease with lower clinical scores; also recorded: reduced significantly”; in experiment [4] (setting [6]), “significantly less corneal disease with lower clinical scores; also recorded: reduced significantly”. Besides, in experiment [2] (5 days p.i.), the “disease/opacity, slit lamp photographs” value is given as “less disease, reduced opacity”. In addition, the CXCL2 protein levels result in experiment [3] (strain 19660, 3 days p.i.) is on record as “downregulated significantly”; in experiment [3] (strain 19660, 5 days p.i.), “downregulated significantly”. For the same molecule, the HMGB1 protein entry in experiment [3] (strain 19660, normal cornea and infected groups) is “no significant differences”. For the same molecule, the CXCL2 protein entry in experiment [3] (strain 19660 experiment, normal cornea) is on record as “No differences”. Besides, the “opacity, slit lamp photographs” value is “decreased opacity” in experiment [4] (post treatment: subconj. 6 hours p.i. + IP 1 and 3 days p.i.); “reduced opacity” in experiment [4] (setting [6]). Moreover, the “infiltrate, slit lamp photographs” value in experiment [4] (pretreatment, 5 days p.i., GLY compared with CBX treated eyes) was “less infiltrate”.
